Measurements taken from the NIST ThermoML archive (doi:10.1021/je034102r).

Test: molar heat capacity at constant pressure
Conditions: 101.33 kPa, Liquid, heat bridge-scanning calorimeter

CCCCn1cc[n+](C)c1.F[P-](F)(F)(F)(F)F [1-butyl-3-methylimidazolium hexafluorophosphate]
Conditions | molar heat capacity at constant pressure [J/K/mol]
353.76 K | 441.34
353.89 K | 441.34
354.01 K | 441.62
354.29 K | 441.9
354.41 K | 441.9
354.54 K | 441.62
354.66 K | 441.9
354.79 K | 442.19
354.91 K | 441.9
355.04 K | 442.19
355.16 K | 442.47
355.29 K | 442.47
355.41 K | 442.47
355.54 K | 442.47
355.81 K | 442.76
355.94 K | 443.04
356.06 K | 442.76
356.19 K | 442.76
356.31 K | 443.04
356.44 K | 443.04
356.56 K | 443.32
356.69 K | 443.32
356.81 K | 443.61
357.1 K | 443.32
357.24 K | 443.61
357.36 K | 443.61
357.49 K | 443.61
357.61 K | 443.61
357.74 K | 443.89
357.86 K | 443.89
357.99 K | 444.18
358.12 K | 444.18
358.24 K | 444.18
358.37 K | 444.18
358.64 K | 444.46
358.76 K | 444.75
358.89 K | 444.46
359.02 K | 444.75
359.14 K | 444.75
359.27 K | 444.75
359.39 K | 445.03
359.52 K | 445.03
359.64 K | 445.31
359.93 K | 445.31
360.05 K | 445.31
360.18 K | 445.6
360.3 K | 445.6
360.43 K | 445.88
360.55 K | 445.88
360.68 K | 445.88
360.8 K | 446.17
360.93 K | 446.17
361.05 K | 446.17
361.18 K | 446.45
361.45 K | 446.45
361.58 K | 446.45
361.7 K | 446.45
361.83 K | 446.45
361.95 K | 446.73
362.08 K | 446.73
362.2 K | 447.02
362.33 K | 447.02
362.45 K | 447.02
362.73 K | 447.02
362.86 K | 447.02
362.98 K | 447.3
363.12 K | 447.3
363.25 K | 447.3
363.37 K | 447.3
363.5 K | 447.59
363.62 K | 447.59
363.75 K | 447.87
363.87 K | 447.59
364 K | 447.87
364.27 K | 447.87
364.4 K | 447.87
364.52 K | 447.87
364.65 K | 448.16
364.77 K | 448.16
364.9 K | 448.16
365.02 K | 448.16
365.15 K | 448.44
365.28 K | 448.16
365.56 K | 448.44
365.69 K | 448.44
365.81 K | 448.72
365.94 K | 448.72
366.06 K | 448.72
366.19 K | 448.72
366.32 K | 448.72
366.44 K | 449.01
366.57 K | 449.01
366.69 K | 449.01
366.82 K | 449.29
367.09 K | 449.29
367.22 K | 449.29
367.34 K | 449.58
367.47 K | 449.86
367.59 K | 449.86
367.72 K | 449.86
367.84 K | 449.86
367.97 K | 449.86
368.1 K | 450.43
368.38 K | 450.14
368.51 K | 450.43
368.63 K | 450.43
368.76 K | 450.43
368.88 K | 450.43
369.02 K | 450.43
369.15 K | 450.43
369.27 K | 450.43
369.4 K | 450.71
369.53 K | 450.71
369.65 K | 450.71
369.92 K | 452.13
370.05 K | 452.13
370.17 K | 451.85
370.3 K | 451.28
370.43 K | 451.57
370.55 K | 451.28
370.68 K | 451.28
370.8 K | 451.57
370.93 K | 451.57
371.21 K | 451.85
371.34 K | 452.13
371.47 K | 452.13
371.59 K | 451.85
371.72 K | 452.13
371.84 K | 451.85
371.97 K | 452.13
372.09 K | 452.13
372.22 K | 452.13
372.35 K | 452.13
372.47 K | 452.7
372.74 K | 452.99
372.87 K | 452.7
372.99 K | 452.7
373.12 K | 452.7
373.25 K | 452.99
373.37 K | 453.56
373.5 K | 453.84
373.62 K | 453.56
373.75 K | 452.7
374.03 K | 453.27
374.16 K | 453.27
374.29 K | 453.27
374.41 K | 453.27
374.54 K | 454.41
374.67 K | 455.26
374.79 K | 454.69
374.92 K | 454.69
375.06 K | 454.69
375.18 K | 454.41
375.31 K | 454.12
375.58 K | 453.84
375.71 K | 453.84
375.83 K | 453.56
375.96 K | 453.84
376.09 K | 454.69
376.21 K | 455.83
376.34 K | 455.83
376.46 K | 455.54
376.59 K | 454.98
376.87 K | 454.41
376.99 K | 454.41
377.12 K | 454.41
377.25 K | 454.98
377.37 K | 455.26
377.5 K | 454.98
377.63 K | 454.69
377.75 K | 454.69
377.88 K | 454.98
378 K | 455.26
378.13 K | 455.54
378.4 K | 455.54
378.53 K | 455.26
378.65 K | 455.54
378.78 K | 455.54
378.91 K | 455.54
379.03 K | 455.54
379.16 K | 455.83
379.29 K | 456.11
379.41 K | 457.53
379.7 K | 456.11
379.83 K | 456.11
379.95 K | 456.4
380.08 K | 456.68
380.21 K | 456.68
380.33 K | 456.68
380.46 K | 456.68
380.59 K | 456.68
